Measured values reported in article PMC9175088 (Drug Metabolism Letters, 2021).

Tests used:
[1] = Metabolism of enflicoxib and E-6132 in cryopreserved hepatocytes; conditions: male, Wistar, rat
[2] = as above
[3] = enantiomers of enflicoxib; cited from earlier work
[4] = Enflicoxib metabolism in intestinal microsomes
[5] = Enflicoxib metabolism in intestinal microsomes; remark: listed apart in the source
[6] = Secondary phase I metabolism in liver microsomes, unlabeled substrates; type: in vitro ADME; conditions: rat liver microsomes, positive control 10 µM; experiments with M8 as substrate
[7] = dog hepatocytes, positive control 10 µM

Cc1cc(=O)oc2cc(O)ccc12 [7-hydroxy-4-methylcoumarin]
half-life at 10 µM [1]: < 5.9 min
K [2, 7]: -0.0658
half-life at 10 µM ([2]; male, beagle, dog, cryopreserved hepatocytes): 10.5 min

NS(=O)(=O)c1ccc(N2N=C(C(F)(F)F)C[C@@H]2c2ccc(F)cc2F)cc1 [Metabolite E-6231, (R)-(+)-enflicoxib]
Pharmacological activity of enantiomer [3]: negligible

NS(=O)(=O)c1ccc(N2N=C(C(F)(F)F)C[C@H]2c2ccc(F)cc2F)cc1 [Metabolite E-6232, (S)-(-)-enflicoxib]
Pharmacological activity of enantiomer [3]: active enantiomer

C[C@]12CC[C@H]3[C@@H](CCC4=CC(=O)CC[C@@]43C)[C@@H]1CC[C@@H]2O [Testosterone, testosterone]
K [2, 7]: -0.0914
t1/2 [2, 7]: 7.6 min
half-life at 10 µM ([4]; male, Sprague-Dawley, rat, intestinal microsomes, pH 7.4): 133 min
K ([4]; rat intestinal microsomes, positive control 10 µM): -0.0052
K ([5]; dog intestinal microsomes, positive control 10 µM): -0.0195
half-life at 10 µM ([5]; male, beagle, dog, intestinal microsomes, pH 7.4): 35.5 min
K [6]: -0.3314
